# EP4707393A1, “DOUBLE-STRANDED SIRNA, CONJUGATE THEREOF AND USE THEREOF” (CMS Research & Development Pte. Ltd., priority 2023, dated 2024)
# Tested on: human LPA gene (Genbank number: NM_005577.4)
# Experiment: Inhibitory activity against LPA mRNA, psiCHECK-2 dual-luciferase reporter vector in Huh7 cells
# Format: cell-based
# Details: Huh7 cells transfected with LPA_psiCHECK-2 plasmid, RNAiMAX transfection
# Experimental: A stock solution was prepared by dissolving in PBS and stored at -20 °C.
# The human LPA gene (Genbank number: NM_005577.4) was cloned into the psiCHECK™-2 vector.
# Huh7 cells were cultured in DMEM (Gibco-11995-065, 500 mL) medium, supplemented with FBS (ExCellBio-FSP500, 57 mL), Penicillin-Streptomycin solution (Hyclone-SV30010, 5.7 mL), GlutaMAX™ (Gibco-35050-061, 5.7 mL) and Non-Essential Amino Acids Solution (Gibco-11140050, 5.7 mL).
# On Day 1, a method for transfection of the LPA_PSICHECK (TM)-2 plasmid is briefly described as follows: Huh7 cells were washed with DPBS, followed by digestion with 0.05% trypsin, gently pipetted into single cells in DMEM containing 10% FBS, and counted. Plasmid DNA was transferred into Huh7 cells using Fugene HD. The transfected cells were seeded into 96-well plates at a density of 10,000 cells per well, with 100 µL culture medium per well. The cells were incubated overnight in a 5% CO2 incubator at 37 °C.
# On Day 2, the test compounds were diluted serially with PBS to 3 concentrations.
# RNAiMAX transfection reagent was prepared by blending homogeneously with Opti-MEM at a ratio of RNAiMAX: Opti-MEM=3:47 in a 15 mL centrifuge tube as needed. The compounds were mixed with the RNAiMAX/Opti-MEM (1:1) and incubated for 15 min. The compound-containing RNAiMAX/Opti-MEM mixture was diluted 10-fold with fresh medium and blended homogeneously.
# The medium in each well was aspirated, and then 100 µL of the fresh compound-containing medium was added, and then incubated in a 5% CO2, 37 °C incubator.
# Experimental procedures refer to DUAL-GLO® Dual Luciferase Assay System instructions, briefly described as follows: Taking out the cells from the incubator, aspirating and discarding the supernatant, adding 75µL fresh culture medium and 75µL detection reagent, shaking for 10 minutes in the dark, and after the cells had been fully lysed, transfering100µL sample to an opaque whiteboard for detecting the Firefly luminescence signal; adding 50 µL Dual-Glo®Stop & Glo® test reagent to each well and detecting the Renilla luciferase signal after shaking for 10 minutes in the dark. The ratio of the reporter signal to the internal control reporter signal was calculated for each well.
# [formula] % Inhibition = (1-Sampleratio/RNAiMAXcontrolratio) × 100% [formula]
row,Substance,EC50
1,"Z8: siRNA conjugate: sense SEQ ID NO:32, ligand D08 at 3' end of sense strand, antisense SEQ ID NO:56 (sense CCCTTATTGTTATACG; antisense ATCCCTCGTANAACAATAAGGGGCTGTT; 2'-OMe/2'-F modified, ligand at sense 3' end, full pattern not given here)",0.81 nM
2,"Z9: siRNA conjugate: sense SEQ ID NO:33, ligand D08 at 3' end of sense strand, antisense SEQ ID NO:56 (sense CCCTTATTGTTATACG; antisense ATCCCTCGTANAACAATAAGGGGCTGTT; ligand D08 at sense 3' end; listed as RNA; modified_base 1..2: mod_base = OTHER; note = 2'-O-methylcytidine; modified_base 3: mod_base = OTHER; modified_base 4..5: mod_base = OTHER; note = 2'-O-methyluridine; modified_base 6: mod_base = OTHER; note = 2'-O-me; modified_base 1: mod_base = OTHER; note = 2'-O-methyladenosine; modified_base 2: mod_base = OTHER; note = 2'-O-met)",1.77 nM
3,"Z10: siRNA conjugate: sense SEQ ID NO:34, ligand D08 at 3' end of sense strand, antisense SEQ ID NO:56 (sense CCCTTATTGTTATACG; antisense ATCCCTCGTANAACAATAAGGGGCTGTT; 2'-OMe/2'-F modified, ligand at sense 3' end, full pattern not given here)",2.11 nM
4,"Z11: siRNA conjugate: sense SEQ ID NO:27, ligand D08 at 3' end of sense strand, antisense SEQ ID NO:59 (sense CCCTTATTGTTATACG; antisense ATCCCTCGTANAACAATAAGGGGCTGCC; 2'-OMe/2'-F modified, ligand at sense 3' end, full pattern not given here)",0.56 nM
5,"Z12: siRNA conjugate: sense SEQ ID NO:27, ligand D08 at 3' end of sense strand, antisense SEQ ID NO:60 (sense CCCTTATTGTTATACG; antisense ATCCCTCGTANAACAATAAGGGGCTG; 2'-OMe/2'-F modified, ligand at sense 3' end, full pattern not given here)",0.32 nM
6,"Z13: siRNA conjugate: sense SEQ ID NO:27, ligand D08 at 3' end of sense strand, antisense SEQ ID NO:61 (sense CCCTTATTGTTATACG; antisense ATCCCTCGTANAACAATAAGGGGCTGTT; 2'-OMe/2'-F modified, ligand at sense 3' end, full pattern not given here)",0.42 nM
7,"Z14: siRNA conjugate: sense SEQ ID NO:27, ligand D08 at 3' end of sense strand, antisense SEQ ID NO:62 (sense CCCTTATTGTTATACG; antisense ATCCCTCGTANAACAATAAGGGGCTGTT; 2'-OMe/2'-F modified, ligand at sense 3' end, full pattern not given here)",1.59 nM
8,"Z15: siRNA conjugate: sense SEQ ID NO:27, ligand D08 at 3' end of sense strand, antisense SEQ ID NO:63 (sense CCCTTATTGTTATACG; antisense ATCCCTCGTANAACAATAAGGGGCTG; 2'-OMe/2'-F modified, ligand at sense 3' end, full pattern not given here)",0.23 nM
9,"Z17: siRNA conjugate: sense SEQ ID NO:36, ligand D01 at 3' end of sense strand, antisense SEQ ID NO:63 (sense NNCCCCTTATTGTTATACN; antisense ATCCCTCGTANAACAATAAGGGGCTG; 2'-OMe/2'-F modified, ligand at sense 3' end, full pattern not given here)",1.5 nM
10,"Z18: siRNA conjugate: sense SEQ ID NO:36, ligand D01 at 3' end of sense strand, antisense SEQ ID NO:61 (sense NNCCCCTTATTGTTATACN; antisense ATCCCTCGTANAACAATAAGGGGCTGTT; 2'-OMe/2'-F modified, ligand at sense 3' end, full pattern not given here)",0.25 nM
11,"Z20: siRNA conjugate: sense SEQ ID NO:27, ligand D01 at 3' end of sense strand, antisense SEQ ID NO:56 (sense CCCTTATTGTTATACG; antisense ATCCCTCGTANAACAATAAGGGGCTGTT; 2'-OMe/2'-F modified, ligand at sense 3' end, full pattern not given here)",0.51 nM
12,"Z21: siRNA conjugate: sense SEQ ID NO:36, ligand D01 at 3' end of sense strand, antisense SEQ ID NO:64 (sense NNCCCCTTATTGTTATACN; antisense TCTCGTANAACAATAAGGGGCTGTT; 2'-OMe/2'-F modified, ligand at sense 3' end, full pattern not given here)",0.44 nM
13,"Z22: siRNA conjugate: sense SEQ ID NO:38, ligand D18 at 3' end of sense strand, antisense SEQ ID NO:64 (sense NNCCCCTTATTGTTATACNA; antisense TCTCGTANAACAATAAGGGGCTGTT; 2'-OMe/2'-F modified, ligand at sense 3' end, full pattern not given here)",0.28 nM
14,"Z23: siRNA conjugate: sense SEQ ID NO:39, ligand D18 at 3' end of sense strand, antisense SEQ ID NO:64 (sense NNCCCCTTATTGTTATACGN; antisense TCTCGTANAACAATAAGGGGCTGTT; 2'-OMe/2'-F modified, ligand at sense 3' end, full pattern not given here)",0.12 nM
15,"Z25: siRNA conjugate: sense SEQ ID NO:41, ligand D18 at 3' end of sense strand, antisense SEQ ID NO:64 (sense NNCCCCTTATTGTTATACGNGA; antisense TCTCGTANAACAATAAGGGGCTGTT; ligand D18 at sense 3' end; listed as RNA; modified_base 1: mod_base = OTHER; note = n is invAb; modified_base 2: mod_base = OTHER; note = n is R; modified_base 3..6: mod_base = OTHER; note = 2'-O-methylcytidine; modified_base 7: mod_base = OTHER; note = 2'-O-methyluridine; modified_ba; modified_base 3: mod_base = OTHER; modified_base 4: mod_base = OTHER; note = 2'-fluorocytidine; modified_base 5: mod_base = OTHER; note = 2'-O-methylg)",0.68 nM
16,"Z26: siRNA conjugate: sense SEQ ID NO:42, ligand D18 at 3' end of sense strand, antisense SEQ ID NO:65 (sense CCCTTATTGTTANACGA; antisense TCTCGTATNACAATAAGGGGCTT; ligand D18 at sense 3' end; listed as RNA; modified_base 1..2: mod_base = OTHER; note = 2'-O-methylcytidine; modified_base 3: mod_base = OTHER; modified_base 4: mod_base = OTHER; note = 2'-O-methyluridine; modified_base 5: mod_base = OTHER; note = 2'-fluorou; modified_base 1: mod_base = OTHER; note = 2'-fluorocytidine; note = 2'-O-methylg)",2.83 nM
17,"Z36: siRNA conjugate: sense SEQ ID NO:50, ligand D18 at 3' end of sense strand, antisense SEQ ID NO:75 (sense CCTGCCAAGCTTGGTCATCTA; antisense TAGATGNCCAAGCTTGGCNGGTT; ligand D18 at sense 3' end; listed as RNA; modified_base 1..2: mod_base = OTHER; note = 2'-O-methylcytidine; modified_base 3: mod_base = OTHER; note = 2'-O-methyluridine; modified_base 4: mod_base = OTHER; note = 2'-O-methylguanosine; modified_base 5..6: mod_base = OTHER; note = 2'-O-m; modified_base 1: mod_base = OTHER; note = E-type vinylphosphonate-modified 2'-O-methyluridine; modified_base 2: mod_base = OTHER; note = 2'-fluoroadenosine; modified_base 4: m)",0.23 nM
